In patent publication US11584744B2 (UNIVERSITY OF WASHINGTON, priority 2017, dated 2023):

Tested on: Cryptosporidium parvum
Test: C. parvum parasite burden model, gamma-IFN knockout mice, bioluminescence readout
Type: in vivo
Protocol: FIG. 4 illustrates efficacy of MetRS inhibitors in a parasite burden model of Cryptosporidium parvum infection. About 1,000-fold reduction of parasite burden was observed after treatment by 2093.
Several compounds of the disclosure were also evaluated in vivo in C. parvum infection model and in acute T. cruzi infection model. Immunosuppressed mice (NOD SCID Gamma) with Cryptosporidium infection were treated for 5 days with test compounds. Cryptosporidium oocysts were quantified in stool by PCR. […] In FIG. 4, gamma-IFN knockout mice were used and, similarly, treated for 5 days with the test compound 2093. […] With respect to the T. cruzi, an efficacy model was employed in which the infection was monitored using bioluminescent T. cruz. With vehicle treatment, all mice died by day 14 post-infection.

CCn1c(Cc2ccc(OC)cc2Cl)cn(Cc2nc3nc(Cl)ccc3[nH]2)c1=O [Compound 2093, 1-({5-chloro-1H-imidazo[4,5-b]pyridin-2-yl}methyl)-4-[(2-chloro-4-methoxyphenyl)methyl]-3-ethyl-2,3-dihydro-1H-imidazol-2-one]
reduction of parasite burden (FIG. 4): About 1,000 fold
drop in fecal parasites (gamma-IFN knockout mice, treated 5 days, bioluminescence): > 4 log
